Reference: patent US20240058443A1, “PREVENTION OR MITIGATION OF NK CELL ENGAGING AGENT-RELATED ADVERSE EFFECTS” (Hoffmann-La Roche Inc., priority 2021, published 2024)

What was measured:
CD19+ B cell = experiment: Whole blood assay: obinutuzumab-induced B cell depletion measured by flow cytometry; assay type: cell-based; conditions: for B cell depletion induced by obinutuzumab: 100 nM inhibitor, fresh whole blood, obinutuzumab 100 to 0.1 μg/mL, 48 hours, FIG. 1; for target cell killing mediated by NK cell engaging antibody: summary statement of the description, no conditions given
Method: FIG. 1. Effect of 100 nM ruxolitinib (ruxo), 100 nM sirolimus (siro), 100 nM dasatinib (dasa) on obinutuzumab-induced CD19^+ B cell depletion in a whole blood assay. Fresh whole blood was incubated with 100, 10, 1 and 0.1 μg/mL obinutuzumab or PGLALA IgG in the presence and absence of 100 nM ruxolitinib, 100 nM sirolimus and 100 nM dasatinib for 48 hours. The PGLALA IgG has a silent Fc region and is a negative control. At 48 hours, blood was collected and lysed and the percentage of CD19^+ B cell among live cells was measured by flow cytometry. Mean of n=2 donors.
(§1) The CD20-targeting, effector-enhanced antibody obinutuzumab (Gazyva®) depletes B cells via FcγR signaling, and can be associated with a risk of infusion reaction characterized by cytokine release induced via FcγR signaling. To assess whether the mTOR inhibitor sirolimus, the JAK1/2 inhibitor ruxolitinib and the Src inhibitor dasatinib can prevent cytokine release induced via FcγR signaling, a whole blood assay using escalating doses of obinutuzumab in the presence and absence of sirolimus, ruxolitinib and dasatinib was conducted. A corresponding anti-CD20 IgG with a silent Fc portion (comprising “PGLALA” mutations L234A, L235A, P329G (Kabat EU numbering)) was used as a negative control (“PGLALA IgG”). In this assay, fresh whole blood is incubated together with concentrations of obinutuzumab ranging from 100 μg/mL to 0.1 μg/mL in the presence and absence of 100 nM sirolimus, 100 nM ruxolitinib and 100 nM dasatinib. To assess the impact of the different kinase inhibitors on cytokine release, serum was collected at 24 hours and cytokines were analyzed by Luminex. To assess the impact of the different kinase inhibitors on B cell depletion, blood was lysed at 48 hours and B cell depletion was measured by flow cytometry.

[1] = system: cytokine release induced via FcγR signaling; experiment: Whole blood assay: obinutuzumab-induced cytokine release, serum cytokines analyzed by Luminex; assay type: cell-based; conditions: for levels of IFN-γ: FIG. 2A; for levels of TNF-α: FIG. 2C; for levels of MCP-1: FIG. 2F; for cytokine release: overall statement, whole blood, obinutuzumab; for cytokine release induced by an NK cell engaging antibody: summary statement of the description, no conditions given
Method: FIG. 2. Effect of 100 nM ruxolitinib (ruxo), 100 nM sirolimus (siro), 100 nM dasatinib (dasa) on obinutuzumab-induced IFN-γ (FIG. 2A), IL-2 (FIG. 2B), TNF-α (FIG. 2C), IL-6 (FIG. 2D), IL-8 (FIG. 2E) and MCP-1 (FIG. 2F) for 100, 10, 1 and 0.1 μg/mL obinutuzumab in a whole blood assay. Fresh whole blood was incubated with 100, 10, 1 and 0.1 μg/mL obinutuzumab or PGLALA IgG in the presence and absence of 100 nM ruxolitinib, 100 nM sirolimus and 100 nM dasatinib for 48 hours. The PGLALA IgG has a silent Fc region and is a negative control. At 24 hours, serum was collected and cytokines were analyzed by Luminex. Mean of n=2 donors.
as §1

[2] = 100 nM inhibitor, fresh whole blood, obinutuzumab 100 to 0.1 μg/mL, serum at 24 hours
[3] = 100 nM inhibitor, fresh whole blood, obinutuzumab 100 to 0.1 μg/mL, serum at 24 hours, FIG. 2D, first IL-6 of the list
[4] = 100 nM inhibitor, fresh whole blood, obinutuzumab 100 to 0.1 μg/mL, serum at 24 hours, second IL-6 of the list

Row | SMILES | B cell depletion induced by obinutuzumab (CD19+ B cell) | target cell killing mediated by NK cell engaging antibody (CD19+ B cell) | levels of IFN-γ [1, 2] | levels of IL-2 ([1]; 100 nM inhibitor, fresh whole blood, obinutuzumab 100 to 0.1 μg/mL, serum at 24 hours, FIG. 2B) | levels of TNF-α [1, 2] | levels of IL-6 [1, 3] | levels of MCP-1 [1, 2] | levels of IL-6 [1, 4] | potency in reducing cytokine release among the three classes of kinase inhibitors ([1]; comparison of Src, mTOR and JAK1/2 inhibitor at 100 nM) | cytokine release ([1]; 100 nM inhibitor) | cytokine release induced by an NK cell engaging antibody [1]
1 | Cc1nc(Nc2ncc(C(=O)Nc3c(C)cccc3Cl)s2)cc(N2CCN(CCO)CC2)n1 [dasatinib, N-(2-chloro-6-methylphenyl)-2[[6[4-(2-hydroxyethyl)-1-piperazinyl]-2-methyl-4-pyrimidinyl]amino]-5-thiazole carboxamide monohydrate] | did not prevent | retaining | strongly reduced | strongly reduced | strongly reduced | strongly reduced | strongly reduced | strongly reduced | most potent | reduced cytokine release | potently prevent
2 | N#CC[C@H](C1CCCC1)n1cc(-c2ncnc3[nH]ccc23)cn1 [ruxolitinib, Ruxolitinib] | did not prevent | retaining | reduced |  | reduced | reduced | reduced | reduced |  | reduced cytokine release | potently prevent
3 | CO[C@H]1C[C@@H]2CC[C@@H](C)[C@@](O)(O2)C(=O)C(=O)N2CCCC[C@H]2C(=O)O[C@H]([C@H](C)C[C@@H]2CC[C@@H](OCCO)[C@H](OC)C2)CC(=O)[C@H](C)/C=C(\C)[C@@H](O)[C@@H](OC)C(=O)[C@H](C)C[C@H](C)/C=C/C=C/C=C/1C [everolimus, Everolimus] |  | retaining |  |  |  |  |  |  |  |  | potently prevent
4 | CO[C@H]1C[C@@H]2CC[C@@H](C)[C@@](O)(O2)C(=O)C(=O)N2CCCC[C@H]2C(=O)O[C@H]([C@H](C)C[C@@H]2CC[C@@H](O)[C@H](OC)C2)CC(=O)[C@H](C)/C=C(\C)[C@@H](O)[C@@H](OC)C(=O)[C@H](C)C[C@H](C)/C=C/C=C/C=C/1C [sirolimus, Sirolimus] | did not prevent | retaining | reduced |  | reduced | reduced | reduced | reduced |  | reduced cytokine release | potently prevent
5 | CO[C@H]1C[C@@H]2CC[C@@H](C)[C@@](O)(O2)C(=O)C(=O)N2CCCC[C@H]2C(=O)O[C@H]([C@H](C)C[C@@H]2CC[C@@H](OC(=O)C(C)(CO)CO)[C@H](OC)C2)CC(=O)[C@H](C)/C=C(\C)[C@@H](O)[C@@H](OC)C(=O)[C@H](C)C[C@H](C)/C=C/C=C/C=C/1C [temsirolimus, Temsirolimus] |  | retaining |  |  |  |  |  |  |  |  | potently prevent
